Here are results for 22 molecules from patent US20180099931A1 (AbbVie S.à.r.l., priority 2016, published 2018).

pEC50: −log10 of the molar value. Like-named read-outs stand apart in the source and are kept apart here. A value given as a limit tells only on which side of the number the result lay.

This experiment deals with T1, F508delCFTR (Homo sapiens, UniProt P13569, DEL508-508).
T1 construct: expressed in transfected cells; host or cells: CFBE41o- human lung-derived epithelial cells (CFBE4lo-F508delCFTR-HRP), doxycycline-inducible
T1 sequence (P13569 with tags, fused parts or gaps DEL508-508): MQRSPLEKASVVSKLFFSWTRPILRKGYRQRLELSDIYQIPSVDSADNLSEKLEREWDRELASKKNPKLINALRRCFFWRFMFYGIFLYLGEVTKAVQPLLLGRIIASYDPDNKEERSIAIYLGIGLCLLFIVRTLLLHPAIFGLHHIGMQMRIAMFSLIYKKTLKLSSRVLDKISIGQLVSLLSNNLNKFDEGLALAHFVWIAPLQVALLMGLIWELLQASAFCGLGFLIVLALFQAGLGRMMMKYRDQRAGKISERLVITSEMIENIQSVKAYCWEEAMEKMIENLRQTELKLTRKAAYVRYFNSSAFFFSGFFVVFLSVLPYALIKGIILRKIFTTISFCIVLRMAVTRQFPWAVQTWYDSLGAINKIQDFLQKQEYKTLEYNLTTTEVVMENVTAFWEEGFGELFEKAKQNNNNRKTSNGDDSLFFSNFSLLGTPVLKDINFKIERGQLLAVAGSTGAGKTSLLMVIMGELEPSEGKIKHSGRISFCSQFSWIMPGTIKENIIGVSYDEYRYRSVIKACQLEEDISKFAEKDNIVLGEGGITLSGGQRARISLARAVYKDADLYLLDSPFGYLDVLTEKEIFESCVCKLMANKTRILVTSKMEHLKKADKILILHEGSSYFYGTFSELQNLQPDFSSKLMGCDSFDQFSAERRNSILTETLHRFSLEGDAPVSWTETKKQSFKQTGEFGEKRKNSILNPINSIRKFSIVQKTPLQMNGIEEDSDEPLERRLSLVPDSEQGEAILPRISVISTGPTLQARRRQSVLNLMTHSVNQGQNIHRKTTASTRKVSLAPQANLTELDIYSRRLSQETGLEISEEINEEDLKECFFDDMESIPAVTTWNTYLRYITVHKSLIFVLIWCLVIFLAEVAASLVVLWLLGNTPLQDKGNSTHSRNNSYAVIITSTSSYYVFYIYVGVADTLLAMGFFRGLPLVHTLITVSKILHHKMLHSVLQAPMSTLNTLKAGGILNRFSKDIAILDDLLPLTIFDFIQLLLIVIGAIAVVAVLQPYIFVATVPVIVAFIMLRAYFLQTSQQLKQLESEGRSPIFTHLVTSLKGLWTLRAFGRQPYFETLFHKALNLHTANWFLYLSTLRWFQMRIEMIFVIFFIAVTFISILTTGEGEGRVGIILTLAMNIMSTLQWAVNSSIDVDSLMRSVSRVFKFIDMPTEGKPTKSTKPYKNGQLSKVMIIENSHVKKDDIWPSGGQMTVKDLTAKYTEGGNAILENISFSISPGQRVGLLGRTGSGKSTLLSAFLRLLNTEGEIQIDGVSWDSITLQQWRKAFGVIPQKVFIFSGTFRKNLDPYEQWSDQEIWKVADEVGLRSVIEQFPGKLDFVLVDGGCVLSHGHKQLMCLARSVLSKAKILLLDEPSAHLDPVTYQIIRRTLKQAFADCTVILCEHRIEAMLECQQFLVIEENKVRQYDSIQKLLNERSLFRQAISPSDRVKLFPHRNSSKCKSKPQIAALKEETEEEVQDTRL
The experiment can be described thus: Cell Surface Expression-Horse Radish Peroxidase (CSE-HRP) Assay.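 On Maximum % activity (with co-corrector): co-corrector and positive control are both the same reference corrector at 2 µM.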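 On Maximum % activity (without co-corrector): percent of the 2 µM on-plate positive control corrector response above DMSO.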 The conditions noted are these: for Emax / Maximum % activity (with co-corrector): maximum at any tested concentration, normalized to on-plate positive control; for Emax: read-out: Maximum % activity (without co-corrector). The format is cell-based.

Setting [1] is: test compound without co-corrector.
Where [2] appears, read: test compound without co-corrector, read-out: EC50 (without co-corrector).
Setting [3] is: with co-corrector (2 μM of 3-[(2R,4R)-4-({[1-(2,2-difluoro-1,3-benzodioxol-5-yl)cyclopropyl]carbonyl}amino)-7-methoxy-3,4-dihydro-2H-chromen-2-yl]benzoic acid).
[4] abbreviates: with co-corrector (2 μM of 3-[(2R,4R)-4-({[1-(2,2-difluoro-1,3-benzodioxol-5-yl)cyclopropyl]carbonyl}amino)-7-methoxy-3,4-dihydro-2H-chromen-2-yl]benzoic acid), read-out: EC50 (with co-corrector).

For orientation: pEC50 means −log10 of the EC50, conventionally taken in molar units. On to `COc1cc2c(cc1CN[C@H]1[C@H](C(C)(C)C)[C@@H](C(=O)O)N(C(=O)OC(C)C)[C@H]1c1cccnc1N(C)C)CCCC2` [II-565], for which, under setting [1], the Emax fell in the range of 100 to 200%. The pEC50 by setting is: under setting [2], 5.00 to 6.00; under setting [4], 5.00 to 6.00. For the same molecule, the “Maximum % activity (with co-corrector)” value under setting [3] is reported as “+++ (≥350)”.
As to `COc1ncc(C2CCC2)cc1CN[C@H]1[C@H](C(C)(C)C)[C@@H](C(=O)O)N(C(=O)[C@H]2CCCCO2)[C@H]1c1ccccc1F` [II-566], under setting [1], the Emax lay in the range of 100 to 200%. Moreover, the pEC50 under setting [2] is 5.00 to 6.00 and the negative-log EC50 (pEC50) under setting [4] was 5.00 to 6.00. The “Maximum % activity (with co-corrector)” value under setting [3] is on record as “+++ (≥350)”.
For `COc1ccc(Cl)cc1CN[C@H]1[C@H](C(C)(C)C)[C@@H](C(=O)O)N(C(=O)OC(C)C)[C@H]1c1ccccc1C(C)C` [II-567], the Emax under setting [1] was over 200%. The negative logarithm of the EC50 (pEC50) reads like this: under setting [2], 5.00 to 6.00; under setting [4], 5.00 to 6.00. The “Maximum % activity (with co-corrector)” value under setting [3] is reported as “+++ (≥350)”.
For `COc1ccc(Cl)cc1CN[C@H]1[C@H](C(C)(C)C)[C@@H](C(=O)O)N(C(=O)OC(C)C)[C@H]1c1cccnc1N(C)C` [II-568], the Emax under setting [1] was in the range of 100 to 200%. In addition, the pEC50 was 5.00 to 6.00 under setting [2] and 5.00 to 6.00 under setting [4]. The “Maximum % activity (with co-corrector)” value under setting [3] was “++ (≥150 and <350)”.
With `COc1ccc2c(c1)[C@@](C)(C(=O)N1[C@H](C(=O)O)[C@@H](C(C)(C)C)[C@H](NCc3cc(C(C)(C)C)ccc3OC)[C@@H]1c1cccnc1OC)CC2` [II-569], the Emax under setting [1] is under 100%. Further, the pEC50 runs as follows: under setting [2], 5.00 to 6.00; under setting [4], 5.00 to 6.00. Besides, the “Maximum % activity (with co-corrector)” value under setting [3] is listed as “+++ (≥350)”.
Take `COc1ccc2c(c1)[C@](C)(C(=O)N1[C@H](C(=O)O)[C@@H](C(C)(C)C)[C@H](NCc3cc(C(C)(C)C)ccc3OC)[C@@H]1c1cccnc1OC)CC2` [II-570]: the Emax under setting [1] was under 100%. Further, the pEC50 is 5.00 to 6.00 under setting [2] and 5.00 to 6.00 under setting [4]. In addition, the “Maximum % activity (with co-corrector)” value under setting [3] is “++ (≥150 and <350)”.
In the case of `COc1cc(C(F)(F)F)ccc1CN[C@H]1[C@H](C(C)(C)C)[C@@H](C(=O)O)N(C(=O)[C@H]2CCC[C@H](OC)C2)[C@H]1c1ccccc1` [II-571], under setting [1], the Emax is over 200%. Moreover, the pEC50 is, setting by setting: under setting [2], 5.00 to 6.00; under setting [4], 5.00 to 6.00. Further, the “Maximum % activity (with co-corrector)” value under setting [3] is given as “+++ (≥350)”.
In the case of `COc1ncc(C(F)(F)F)cc1CN[C@H]1[C@H](C(C)(C)C)[C@@H](C(=O)O)N(C(=O)[C@@H]2CCCC(F)(F)C2)[C@H]1c1cccnc1OC` [II-572], the Emax under setting [1] was 100 to 200%. The pEC50 reads like this: under setting [2], 5.00 to 6.00; under setting [4], over 6.00. Under setting [3], the “Maximum % activity (with co-corrector)” value is “+++ (≥350)”.
For `COc1ccc(C(F)(F)F)cc1CN[C@H]1[C@H](C(C)(C)C)[C@@H](C(=O)O)N(C(=O)C2CCCCC2)[C@H]1c1cccnc1OC` [II-573], in that order: 100 to 200%, 5.00 to 6.00, 5.00 to 6.00 and “+++ (≥350)”.
On to `COc1cc2c(cc1CN[C@H]1[C@H](C(C)(C)C)[C@@H](C(=O)O)N(C(=O)OC(C)C)[C@H]1c1cccnc1OC(C)C)CCC2` [II-574], for which the Emax under setting [1] is over 200%. The pEC50 was 5.00 to 6.00 under setting [2] and 5.00 to 6.00 under setting [4]. Further, under setting [3], the “Maximum % activity (with co-corrector)” value is listed as “+++ (≥350)”.
`Cc1cc(C(F)(F)F)cc(N[C@H]2[C@H](C(C)(C)C)[C@@H](C(=O)O)N(C(=O)C3CCCCC3)[C@H]2c2ccccc2C)n1` [II-575]: the Emax under setting [1] was in the range of 100 to 200%. Also, the pEC50 runs as follows: under setting [2], 5.00 to 6.00; under setting [4], 5.00 to 6.00. Further, the “Maximum % activity (with co-corrector)” value under setting [3] is on record as “+++ (≥350)”.
On to `COc1ccc(C(C)(C)C)cc1CN[C@H]1[C@H](C(C)(C)C)[C@@H](C(=O)O)N(C(=O)C2CCCCC2)[C@H]1c1ccccc1C` [II-576], for which the Emax under setting [1] is over 200%. For the same molecule, the pEC50 was over 6.00 under setting [2] and over 6.00 under setting [4]. Further, the “Maximum % activity (with co-corrector)” value under setting [3] is given as “+++ (≥350)”.
In the case of `COc1ncc(N2CCCC2)cc1CN[C@H]1[C@H](C(C)(C)C)[C@@H](C(=O)O)N(C(=O)OC(C)C)[C@H]1c1cccnc1N(C)C` [II-577], the Emax under setting [1] was 100 to 200%. In addition, the pEC50 is 5.00 to 6.00 under setting [2] and 5.00 to 6.00 under setting [4]. Besides, the “Maximum % activity (with co-corrector)” value under setting [3] is “+++ (≥350)”.
`COc1ccc(C2(C)CCC2)cc1CN[C@H]1[C@H](C(C)(C)C)[C@@H](C(=O)O)N(C(=O)[C@@H]2CCCO2)[C@H]1c1ccccc1C` [II-578]: under setting [1], the Emax was over 200%. The negative-log EC50 (pEC50) reads like this: under setting [2], 5.00 to 6.00; under setting [4], over 6.00. For the same molecule, the “Maximum % activity (with co-corrector)” value under setting [3] is given as “+++ (≥350)”.
For `COc1nc2ccccc2cc1CN[C@H]1[C@H](C(C)(C)C)[C@@H](C(=O)O)N(C(=O)OC(C)C)[C@H]1c1ccccc1C` [II-579], in that order: over 200%, 5.00 to 6.00, over 6.00 and “+++ (≥350)”.
For `COc1ncc(C(F)(F)F)cc1CN[C@H]1[C@H](C(C)(C)C)[C@@H](C(=O)O)N(C(=O)OC(C)C)[C@H]1c1ccccc1C` [II-580], in that order: over 200%, 5.00 to 6.00, 5.00 to 6.00 and “+++ (≥350)”.
Turning to `COc1ccc(C(F)(F)F)cc1CN[C@H]1[C@H](C(C)(C)C)[C@@H](C(=O)O)N(C(=O)OC(C)C)[C@H]1c1ccccc1C` [II-581], the Emax under setting [1] is over 200%. Also, the negative-log EC50 (pEC50) was 5.00 to 6.00 under setting [2] and over 6.00 under setting [4]. Also, under setting [3], the “Maximum % activity (with co-corrector)” value was “+++ (≥350)”.
Taken in the same sequence, the figures for `COc1ccc(C(C)(C)C)cc1CN[C@H]1[C@H](C(C)(C)C)[C@@H](C(=O)O)N(C(=O)OC(C)C)[C@H]1c1ccccc1C` [II-582] were over 200%, 5.00 to 6.00, over 6.00 and “+++ (≥350)”.
Taken in the same sequence, the figures for `CC(C)OC(=O)N1[C@H](C(=O)O)[C@@H](C(C)(C)C)[C@H](NCC2CCCN(C(=O)OCc3ccccc3)C2)[C@@H]1c1ccccc1` (stereo partly shown) [II-583] were 100 to 200%, 5.00 to 6.00, 5.00 to 6.00 and “+++ (≥350)”.
Take `CC(C)OC(=O)N1[C@H](C(=O)O)[C@@H](C(C)(C)C)[C@H](NCC2CCCC(C(F)(F)F)C2)[C@@H]1c1ccccc1` (stereo partly shown) [II-584]: under setting [1], the Emax was under 100%. In addition, the negative logarithm of the EC50 (pEC50) under setting [2] was 5.00 to 6.00 and the pEC50 under setting [4] was 5.00 to 6.00. Besides, the “Maximum % activity (with co-corrector)” value under setting [3] was “++ (≥150 and <350)”.
With `COc1ncc(C2CCC2)cc1CN[C@H]1[C@H](C(C)(C)C)[C@@H](C(=O)O)N(C(=O)[C@@H]2CCCCO2)[C@H]1c1ccccc1C` [II-585], the Emax under setting [1] is over 200%. Also, the pEC50 under setting [2] was 5.00 to 6.00 and the negative-log EC50 (pEC50) under setting [4] is over 6.00. Under setting [3], the “Maximum % activity (with co-corrector)” value is “+++ (≥350)”.
On to `COc1ncc(C(F)(F)F)cc1CN[C@H]1[C@H](C(C)(C)C)[C@@H](C(=O)O)N(C(=O)[C@@H]2CCCO2)[C@H]1c1cccnc1C1CC1` [II-586], for which the Emax under setting [1] was under 100%. Further, the negative logarithm of the EC50 (pEC50) under setting [2] was 5.00 to 6.00 and the pEC50 under setting [4] is 5.00 to 6.00. Also, under setting [3], the “Maximum % activity (with co-corrector)” value is “++ (≥150 and <350)”.
